According to US20100216779A1 (GLAXOSMITHKLINE LLC, priority 2007, published 2010):

How the values were obtained:
[1] = system: NCI-H929 (multiple myeloma); assay: Inhibition of cell proliferation, CellTiter-Glo, NCI-H929; format: cell-based; conditions: Homo sapiens, 72 h
Procedure, shortened: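 Cells were grown in medium with 10% FBS at 37° C, 5% CO2. Cell number was read as CellTiter-Glo luminescence (cellular ATP), with untreated wells as control.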

[2] = system: LISN cell (mouse 3T3 fibroblasts transduced with human IGF-1R) tumors; assay: In vivo efficacy, mice bearing LISN cell tumors; conditions: for tumor growth inhibition at day 21: LISN (start approx. 362 mm^3)
Description: E. In Vivo Efficacy—Mouse Models
The efficacy of the compounds of Examples 57 and 58 were assessed together in an in vivo efficacy experiment performed on mice bearing LISN cell (mouse 3T3 fibroblasts transduced with human IGF-1R) tumors. Fifty six female nude mice bearing subcutaneous LISN cell tumors were measured for tumor size and body weight and block randomized into seven groups of eight mice with an equal average tumor volume of approximately 200 mm3. Mice were dosed with either vehicle (20% SBE pH3.5), Example 57 or Example 58. The dosing schedules for each compound were based on previous experiments with the compounds and doses chosen to give the highest tumor growth inhibition and a dose response. Example 58 was dosed at 30, 100 and 300 mg/kg QD for 21 days while Example 57 was dosed at 30 mg/kg QD for 21 days, 15 mg/kg BID for 21 days and 30 mg/kg QDx3 days/week for 3 weeks.
The tumors on mice being treated with vehicle grew with the expected exponential growth throughout the 21 day study. […] The lower dose of 30 mg/kg of Example 58 achieved 28% tumor growth inhibition.
The efficacy of the compounds of Examples 237 and 219 were assessed together in an in vivo efficacy experiment performed on mice bearing LISN cell (mouse 3T3 fibroblasts transduced with human IGF-1R) tumors. Sixty four female nude mice bearing subcutaneous LISN cell tumors were measured for tumor size and body weight and block randomized into eight groups of eight mice with an equal average tumor volume of approximately 362 mm^3. Mice were dosed with either vehicle (20% SBE pH3.5), Example 237 or Example 219. The dosing schedules for each compound were based on previous experiments with the compounds and doses chosen to give the highest tumor growth inhibition and a dose response. Example 237 was administered at 30 and 60 mg/kg QD for 21 days and 30 mg/kg BID for 21 days while Example 219 was administered at 50 and 100 mg/kg QD for 21 days, 25 and 50 mg/kg BID for 21 days.
The tumors on mice being treated with vehicle grew with the expected exponential growth throughout the 21 day study. […] The lower dose of 30 mg/kg QD of Example 237 achieved 15% tumor growth inhibition at day 21 (note: 2 animals were euthanized prior to the last measurement). […] This recovered to 3% by the end of dosing and fully recovered after dosing was concluded. […] This recovered fully within 4 days after the completion of dosing.

[3] = target: T1, human IGF-1R (NIH-3T3 cells over expressing human IGF-1R) (Homo sapiens, UniProt P08069); assay: IGF-1R cellular autophosphorylation (DELFIA); format: cell-based; conditions: IGF-1 stimulated
T1 construct: expressed in transfected cells; host or cells: NIH-3T3 (mouse fibroblasts)
T1 sequence (P08069 31-1367): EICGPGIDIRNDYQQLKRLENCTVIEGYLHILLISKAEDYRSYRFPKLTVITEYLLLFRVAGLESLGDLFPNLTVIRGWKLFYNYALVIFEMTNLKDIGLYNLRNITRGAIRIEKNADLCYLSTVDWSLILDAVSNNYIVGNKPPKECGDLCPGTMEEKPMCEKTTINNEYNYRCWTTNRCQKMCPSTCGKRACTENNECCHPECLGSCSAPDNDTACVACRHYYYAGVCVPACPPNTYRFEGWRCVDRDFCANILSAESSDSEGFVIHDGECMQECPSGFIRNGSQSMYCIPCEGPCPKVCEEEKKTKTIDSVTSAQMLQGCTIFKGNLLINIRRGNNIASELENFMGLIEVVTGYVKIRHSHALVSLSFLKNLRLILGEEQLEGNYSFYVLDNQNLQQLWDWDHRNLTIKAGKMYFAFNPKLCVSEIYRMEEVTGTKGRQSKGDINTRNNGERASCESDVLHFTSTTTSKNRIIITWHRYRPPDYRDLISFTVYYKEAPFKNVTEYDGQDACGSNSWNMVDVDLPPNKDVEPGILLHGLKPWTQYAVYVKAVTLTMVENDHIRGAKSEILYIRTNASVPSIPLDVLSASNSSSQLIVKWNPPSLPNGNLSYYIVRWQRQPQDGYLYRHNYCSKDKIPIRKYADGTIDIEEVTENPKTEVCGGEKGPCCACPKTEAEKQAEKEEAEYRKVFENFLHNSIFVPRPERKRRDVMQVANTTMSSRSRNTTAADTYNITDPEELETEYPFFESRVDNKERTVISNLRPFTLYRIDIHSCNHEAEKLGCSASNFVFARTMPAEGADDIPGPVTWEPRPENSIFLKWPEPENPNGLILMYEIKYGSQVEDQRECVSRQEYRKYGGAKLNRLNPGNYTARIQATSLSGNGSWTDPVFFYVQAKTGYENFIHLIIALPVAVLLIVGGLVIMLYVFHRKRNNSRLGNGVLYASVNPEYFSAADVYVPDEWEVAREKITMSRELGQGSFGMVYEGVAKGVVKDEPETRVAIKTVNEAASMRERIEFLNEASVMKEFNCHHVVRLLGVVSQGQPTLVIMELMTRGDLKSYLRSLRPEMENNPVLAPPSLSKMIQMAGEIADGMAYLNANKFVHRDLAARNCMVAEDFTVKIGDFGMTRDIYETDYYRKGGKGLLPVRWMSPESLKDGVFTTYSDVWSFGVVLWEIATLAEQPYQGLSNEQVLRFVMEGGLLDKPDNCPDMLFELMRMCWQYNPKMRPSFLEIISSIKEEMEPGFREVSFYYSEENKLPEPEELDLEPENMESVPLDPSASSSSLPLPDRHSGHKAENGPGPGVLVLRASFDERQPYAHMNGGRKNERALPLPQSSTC
Procedure, shortened: (§1)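 Receptor-overexpressing NIH-3T3, 10% FBS, 37 °C; cpd 30 uM–1.5 nM × 2 h; stim IGF-1 30 ng/mL (IGF-1R) or insulin 3 ug/mL (IR), 15 min; lysate DELFIA, Eu anti-pTyr; % of stimulated signal.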

[4] = target: T2, IR (NIH-3T3 cells over expressing human IGF-1R or IR) (Homo sapiens, UniProt P06213); assay: IR cellular autophosphorylation (DELFIA); format: cell-based; conditions: NIH-3T3 cells over expressing IR, insulin stimulated
T2 construct: expressed in transfected cells; host or cells: NIH-3T3 (mouse fibroblasts)
T2 sequence (P06213 28-1382): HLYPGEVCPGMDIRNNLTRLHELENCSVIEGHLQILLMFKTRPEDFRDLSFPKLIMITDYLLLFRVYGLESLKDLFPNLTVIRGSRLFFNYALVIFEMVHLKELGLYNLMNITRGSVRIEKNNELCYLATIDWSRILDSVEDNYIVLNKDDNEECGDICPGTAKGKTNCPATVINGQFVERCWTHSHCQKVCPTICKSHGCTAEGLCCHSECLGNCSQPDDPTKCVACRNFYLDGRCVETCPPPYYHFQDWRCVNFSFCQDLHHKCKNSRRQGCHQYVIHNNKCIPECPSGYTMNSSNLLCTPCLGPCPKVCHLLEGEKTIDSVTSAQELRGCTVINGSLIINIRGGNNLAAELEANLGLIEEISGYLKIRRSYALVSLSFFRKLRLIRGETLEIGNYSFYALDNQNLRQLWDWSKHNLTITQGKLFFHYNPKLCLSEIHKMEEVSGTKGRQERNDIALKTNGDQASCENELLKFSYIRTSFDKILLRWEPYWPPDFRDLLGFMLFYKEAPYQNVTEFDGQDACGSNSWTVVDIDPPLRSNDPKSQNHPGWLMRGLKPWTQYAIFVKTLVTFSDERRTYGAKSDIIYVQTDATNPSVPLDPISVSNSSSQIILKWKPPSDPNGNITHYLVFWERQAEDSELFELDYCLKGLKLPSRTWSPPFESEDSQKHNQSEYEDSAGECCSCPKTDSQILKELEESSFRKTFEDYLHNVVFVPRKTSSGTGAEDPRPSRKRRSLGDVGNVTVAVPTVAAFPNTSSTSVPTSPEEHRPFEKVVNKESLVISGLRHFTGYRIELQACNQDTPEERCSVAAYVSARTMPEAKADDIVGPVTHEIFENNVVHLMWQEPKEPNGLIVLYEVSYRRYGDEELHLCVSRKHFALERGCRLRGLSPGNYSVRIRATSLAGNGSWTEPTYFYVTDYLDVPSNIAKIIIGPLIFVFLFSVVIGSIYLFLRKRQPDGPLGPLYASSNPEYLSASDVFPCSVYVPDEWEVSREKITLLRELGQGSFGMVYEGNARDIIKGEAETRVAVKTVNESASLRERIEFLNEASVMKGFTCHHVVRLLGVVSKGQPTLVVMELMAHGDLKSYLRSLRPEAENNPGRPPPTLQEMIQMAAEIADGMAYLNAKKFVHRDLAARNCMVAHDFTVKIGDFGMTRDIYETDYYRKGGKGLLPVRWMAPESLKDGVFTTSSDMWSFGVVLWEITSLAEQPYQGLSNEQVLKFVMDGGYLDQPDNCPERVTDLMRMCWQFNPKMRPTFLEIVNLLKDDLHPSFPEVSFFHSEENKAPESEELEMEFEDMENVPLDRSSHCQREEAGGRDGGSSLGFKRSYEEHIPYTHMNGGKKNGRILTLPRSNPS
Procedure, shortened: as §1

[5] = system: COLO205 (colon); assay: Inhibition of cell proliferation, CellTiter-Glo, COLO205; format: cell-based; conditions: Homo sapiens, COLO 205, 72 h
Procedure, shortened: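 Exponentially growing COLO205 cells in medium with 10% FBS were plated below 2000 cells/well at 37 °C, 5% CO2. Untreated wells served as controls.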

Row | SMILES | IC50 [1] | IC50 [3] | IC50 [4] | IC50 [5] | other results
1 | CCc1cc(Nc2nccc(-c3c(-c4ccc(OC)c(C(=O)Nc5c(F)cccc5F)c4)nc4ccccn34)n2)c(OC)cc1N1CCC(N2CCN(S(C)(=O)=O)CC2)CC1 [Example 237, N-(2,6-difluorophenyl)-5-(3-{2-[(5-ethyl-2-(methyloxy)-4-{4-[4-(methylsulfonyl)-1-piperazinyl]-1-piperidinyl}phenyl)amino]-4-pyrimidinyl}imidazo[1,2-a]pyridin-2-yl)-2-(methyloxy)benzamide] | < 250 nM | < 100 nM | < 100 nM | < 250 nM | tumor growth inhibition at day 21 ([2]; 30 mg/kg BID for 21 days): 84%; tumor growth inhibition at day 21 ([2]; 30 mg/kg QD for 21 days, 2 animals euthanized prior to the last measurement): 15%; tumor growth inhibition at day 21 ([2]; 60 mg/kg QD for 21 days): 41%; body weight loss by the end of dosing ([2]; LISN, 30 mg/kg BID): 3%; initial body weight loss ([2]; LISN, 30 mg/kg BID): 6%; effect on body weight loss ([2]; LISN, other groups (30 and 60 mg/kg QD)): no effect
2 | COc1cc(N2CCC(N3CCN(S(C)(=O)=O)CC3)CC2)ccc1Nc1nccc(-c2c(-c3cccc(C(=O)Nc4c(F)cccc4F)c3)nc3ccccn23)n1 [Example 58, N-(2,6-difluorophenyl)-3-(3-{2-[(2-(methyloxy)-4-{4-[4-(methylsulfonyl)-1-piperazinyl]-1-piperidinyl}phenyl)amino]-4-pyrimidinyl}imidazo[1,2-a]pyridin-2-yl)benzamide] | < 250 nM | < 100 nM | < 100 nM | 250 to 1000 nM | tumor growth inhibition ([2]; LISN, 30 mg/kg QD for 21 days): 28%; tumor growth inhibition ([2]; LISN, 100 mg/kg QD for 21 days): 46%; tumor growth inhibition ([2]; LISN, 300 mg/kg QD for 21 days): 45%; effect on body weight loss ([2]; LISN, 30, 100 and 300 mg/kg QD, throughout the study): no effect
3 | COc1c(Nc2nccc(-c3c(-c4cccc(C(=O)Nc5c(F)cccc5F)c4)nc4ccccn34)n2)ccc(N2CCC(N3CCCCC3)CC2)c1C [Example 54, 3-[3-(2-{[4-(1,4′-bipiperidin-1′-yl)-3-methyl-2-(methyloxy)phenyl]amino}-4-pyrimidinyl)imidazo[1,2-a]pyridin-2-yl]-N-(2,6-difluorophenyl)benzamide] | > 1000 nM | > 500 nM | > 500 nM | > 1000 nM | 
4 | COc1cc(N2CCC(N3CCN(S(C)(=O)=O)CC3)CC2)ccc1Nc1nccc(-c2c(-c3cccc(C(=O)Nc4c(F)cccc4F)c3)nc3cc(F)ccn23)n1 [Example 196, N-(2,6-difluorophenyl)-3-(7-fluoro-3-{2-[(2-(methyloxy)-4-{4-[4-(methylsulfonyl)-1-piperazinyl]-1-piperidinyl}phenyl)amino]-4-pyrimidinyl}imidazo[1,2-a]pyridin-2-yl)benzamide] | < 250 nM | < 100 nM | < 100 nM | 250 to 1000 nM | 
5 | CS(=O)(=O)CCN1CCN(C2CCN(c3ccc(Nc4nccc(-c5c(-c6cccc(C(=O)Nc7c(F)cccc7F)c6)nc6ccccn56)n4)c(OCC(F)(F)F)c3)CC2)CC1 [Example 120, N-(2,6-difluorophenyl)-3-{3-[2-({4-(4-{4-[2-(methylsulfonyl)ethyl]-1-piperazinyl}-1-piperidinyl)-2-[(2,2,2-trifluoroethyl)oxy]phenyl}amino)-4-pyrimidinyl]imidazo[1,2-a]pyridin-2-yl}benzamide] | < 250 nM | < 100 nM | < 100 nM | 250 to 1000 nM | 
6 | COc1cc(N2CCC(N3CCC(F)CC3)CC2)ccc1Nc1nccc(-c2c(-c3cccc(C(=O)Nc4c(F)cccc4F)c3)nc3ccccn23)n1 [Example 51, N-(2,6-difluorophenyl)-3-[3-(2-{[4-(4-fluoro-1,4′-bipiperidin-1′-yl)-2-(methyloxy)phenyl]amino}-4-pyrimidinyl)imidazo[1,2-a]pyridin-2-yl]benzamide] | 250 to 1000 nM | < 100 nM | 100 to 500 nM | 250 to 1000 nM | 
7 | CCOc1ccc(-c2nc3ccccn3c2-c2ccnc(Nc3ccc(N4CCC(N5CCCCC5)CC4)c(C)c3OC)n2)cc1C(=O)Nc1c(F)cccc1F [Example 56, 5-[3-(2-{[4-(1,4′-bipiperidin-1′-yl)-3-methyl-2-(methyloxy)phenyl]amino}-4-pyrimidinyl)imidazo[1,2-a]pyridin-2-yl]-N-(2,6-difluorophenyl)-2-(ethyloxy)benzamide] | 250 to 1000 nM | 100 to 500 nM | 100 to 500 nM | > 1000 nM | 
8 | COCCN1CCN(c2ccc(Nc3nccc(-c4c(-c5ccc(OC)c(C(=O)Nc6c(F)cccc6F)c5)nc5ccccn45)n3)c(OC)c2)CC1 [Example 239, N-(2,6-difluorophenyl)-2-(methyloxy)-5-(3-{2-[(2-(methyloxy)-4-{4-[2-(methyloxy)ethyl]-1-piperazinyl}phenyl)amino]-4-pyrimidinyl}imidazo[1,2-a]pyridin-2-yl)benzamide] | < 250 nM | < 100 nM | < 100 nM | 250 to 1000 nM | 

Second part, led by results:

Row | IC50 [1] | IC50 [3] | IC50 [4] | IC50 [5] | SMILES | other results
9 | < 250 nM | < 100 nM | < 100 nM | < 250 nM | CCOc1ccc(-c2nc3ccccn3c2-c2ccnc(Nc3cc(C)c(N4CCN(CCS(C)(=O)=O)CC4)cc3OC)n2)cc1C(=O)Nc1c(F)cccc1F [Example 150, N-(2,6-difluorophenyl)-2-(ethyloxy)-5-(3-{2-[(5-methyl-2-(methyloxy)-4-{4-[2-(methylsulfonyl)ethyl]-1-piperazinyl}phenyl)amino]-4-pyrimidinyl}imidazo[1,2-a]pyridin-2-yl)benzamide] | 
10 | < 250 nM | < 100 nM | < 100 nM | 250 to 1000 nM | CCOc1ccc(-c2nc3ccccn3c2-c2ccnc(Nc3ccc(C4CCN(CC(C)C)CC4)cc3OC)n2)cc1C(=O)Nc1c(F)cccc1F [Example 161, N-(2,6-difluorophenyl)-2-(ethyloxy)-5-{3-[2-({2-(methyloxy)-4-[1-(2-methylpropyl)-4-piperidinyl]phenyl}amino)-4-pyrimidinyl]imidazo[1,2-a]pyridin-2-yl}benzamide] | 
11 | < 250 nM | < 100 nM | < 100 nM | < 250 nM | CCOc1ccc(-c2nc3ccccn3c2-c2ccnc(Nc3cc(C)c(C4CCN(CCS(C)(=O)=O)CC4)cc3OC)n2)cc1C(=O)Nc1c(F)cccc1F [Example 164, N-(2,6-difluorophenyl)-2-(ethyloxy)-5-(3-{2-[(5-methyl-2-(methyloxy)-4-{1-[2-(methylsulfonyl)ethyl]-4-piperidinyl}phenyl)amino]-4-pyrimidinyl}imidazo[1,2-a]pyridin-2-yl)benzamide] | 
12 | < 250 nM | < 100 nM | < 100 nM | < 250 nM | CCOc1ccc(-c2nc3ccccn3c2-c2ccnc(Nc3cc(C)c(N4CCCN(CCS(C)(=O)=O)CC4)cc3OC)n2)cc1C(=O)Nc1c(F)cccc1F [Example 203, N-(2,6-difluorophenyl)-2-(ethyloxy)-5-(3-{2-[(5-methyl-2-(methyloxy)-4-{4-[2-(methylsulfonyl)ethyl)hexahydro-1H-1,4-diazepin-1-yl]phenyl)amino]-4-pyrimidinyl}imidazo[1,2-a]pyridin-2-yl)benzamide] | 
13 | < 250 nM | < 100 nM | < 100 nM | < 250 nM | CCOc1cc(C2CCN(CCS(C)(=O)=O)CC2)ccc1Nc1nccc(-c2c(-c3ccc(OCC)c(C(=O)Nc4c(F)cccc4F)c3)nc3ccccn23)n1 [Example 185, N-(2,6-difluorophenyl)-2-(ethyloxy)-5-(3-{2-[(2-(ethyloxy)-4-{1-[2-(methylsulfonyl)ethyl]-4-piperidinyl}phenyl)amino]-4-pyrimidinyl}imidazo[1,2-a]pyridin-2-yl)benzamide] | 
